Test results as given in patent publication US20170268001A1, “RNAS WITH TUMOR RADIO/CHEMO-SENSITIZING AND IMMUNOMODULATORY PROPERTIES AND METHODS OF THEIR PREPARATION AND APPLICATION” (THE UNIVERSITY OF CHICAGO, priority 2016, published 2017).

Tests used:
MC38 tumors [1] = assay: ELISPOT of IFNγ-secreting tumor-specific CD8+ T cells from tumor DLNs; assay type: in vivo, mouse
Protocol: (§1) Tumor volumes were measured along three orthogonal axes (a, b, and c) and calculated as tumor volume=abc/2. Tumors were allowed to grow for 9-10 days and treated by local radiation (Deng et al., 2014). Briefly, the body was protected with a lead cover and the tumor was exposed, allowing local radiation. Tumors were irradiated using RS-2000 Biological Irradiator (RAD SOURCE) at the dose of 20Gy with 160 kV and 25 mA. For type I IFN blockade experiments, 200 μg anti-IFAR1 mAb was intratumorally injected on day 0 and 2 after radiation. For HMGB-1 blockade experiments, 200 μg anti-HMGB-1 mAb (clone 3B1, generated by inventors) was administered i.p. on day 0 and 3 after radiation. For CD8^+ T cell depletion experiments, 300 μg anti-CD8 mAb (Clone 2.43, BioXCell) was delivered 5 times by i.p. injection every three days starting one day before radiation. For exogenous IFN-β treatment experiments, 1×10^10 viral particles of Ad-IFN-β (Burnette, B., et al., The Efficacy of Radiotherapy Relies upon Induction of Type I Interferon-Dependent Innate and Adaptive Immunity, Cancer Res Apr. 1, 2011 71; 2488; (doi: 10.1158/0008-5472.CAN-10-2820)) were intratumorally administered on day 2 after radiation. Ad-null was used as negative control. […]

MC38 tumors [2] = assay: MC38 tumor growth after local radiation (20Gy); assay type: in vivo, mouse
Protocol: 1×10^6 MC38 tumor cells were subcutaneously injected into the flank of mice.
as §1

BMDCs = assay: BMDC cross-priming of CD8+ T cells with irradiated tumor cells (ELISPOT); assay type: cell-based, mouse; conditions: IFN-β 10 ng/ml in co-culture; DMXAA 100 μg/ml, 3 h
Protocol: Single-cell suspensions of bone marrow cells were obtained from C57BL/6J, STING^−/− and IRF3^−/− mice. Bone marrow from cGAS^−/− mice was kindly provided by Dr. Zhijian J. Chen of University of Texas Southwestern Medical Center, Dallas. The cells were placed in 10 cm petri dish and cultured in RPMI-1640 medium containing 10% fetal bovine serum ([…]), supplemented with 20 ng/ml GM-CSF. Fresh media with GM-CSF was added into culture on day 3. BMDCs (bone marrow-derived dendritic cells) were harvest for stimulation assay on day 7. 8×10^6 MC38-SIY^hi cells were plated into 10 cm cell culture dishes overnight, and then pretreated with 40Gy and incubated for 5 hours. BMDCs were added and co-cultured with MC38-SIY″ cells at the ratio of 1:1 in the presence of fresh GM-CSF for additional 8 hours. Subsequently purified CD11c^+ cells with EasySep™ Mouse CD11c Positive Selection Kit II ([…]) were incubated with isolated CD8^+ T cells from naive 2C mice for three days. For the bypassing assay, 10 ng/ml murine IFN-β was added in the co-culture of BMDCs and tumor cells, or 100 μg/ml DMXAA was added into isolated CD11c^+ cells with additional 3 h incubation. For IFN-β detection, BMDCs were co-cultured with tumor cells at the ratio of 1:1 for additional 8 hours, and 1×10^6 cells/ml purified CD11c^+ cells were seed into 96-well plates for 48 hours. […]

[3] = system: RIG-I^−/− and WT MEFs; shRIG-I D54 and HCT116 tumor cells; assay: Caspase 3/7 activity in response to chemotherapy drugs with or without RIG-I; assay type: cell-based; conditions: increasing doses of drug
[4] = biological target: T1, RIG-I (DDX58), full-length (Homo sapiens) (UniProt O95786); assay: pulldown; conditions: CLIP-qPCR, enrichment in RIG-I complexes from irradiated (6 Gy) vs non-irradiated HEK293; also enriched in HCT116
T1 sequence: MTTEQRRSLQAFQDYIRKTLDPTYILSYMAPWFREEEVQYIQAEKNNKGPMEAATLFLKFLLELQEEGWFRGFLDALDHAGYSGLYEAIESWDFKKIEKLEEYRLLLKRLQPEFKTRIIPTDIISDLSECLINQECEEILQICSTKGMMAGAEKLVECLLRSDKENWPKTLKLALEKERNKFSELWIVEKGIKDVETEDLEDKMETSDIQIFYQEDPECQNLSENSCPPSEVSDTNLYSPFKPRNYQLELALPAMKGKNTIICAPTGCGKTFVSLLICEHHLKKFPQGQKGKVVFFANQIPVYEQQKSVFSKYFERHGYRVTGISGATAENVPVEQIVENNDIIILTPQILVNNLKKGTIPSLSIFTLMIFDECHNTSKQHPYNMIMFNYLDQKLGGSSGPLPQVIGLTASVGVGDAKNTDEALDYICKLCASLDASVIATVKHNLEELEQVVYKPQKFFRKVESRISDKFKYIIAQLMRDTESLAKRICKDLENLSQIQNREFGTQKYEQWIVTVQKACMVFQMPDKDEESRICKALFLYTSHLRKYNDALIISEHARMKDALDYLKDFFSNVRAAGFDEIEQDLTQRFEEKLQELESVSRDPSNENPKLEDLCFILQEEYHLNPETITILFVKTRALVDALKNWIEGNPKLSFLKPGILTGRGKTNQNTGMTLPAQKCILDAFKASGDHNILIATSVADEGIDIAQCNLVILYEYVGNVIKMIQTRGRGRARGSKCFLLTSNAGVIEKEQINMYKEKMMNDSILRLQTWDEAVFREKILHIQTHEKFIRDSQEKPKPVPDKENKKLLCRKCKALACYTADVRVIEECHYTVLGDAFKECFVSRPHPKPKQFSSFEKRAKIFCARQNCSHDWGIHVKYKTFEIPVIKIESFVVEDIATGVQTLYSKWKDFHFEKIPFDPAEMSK

RIG-I = biological target: T2, RIG-I (Homo sapiens, UniProt O95786); assay: HEK293 IFN-beta promoter dual luciferase reporter, RNA stimulation; assay type: cell-based; conditions: 1 μg synthetic oligonucleotide, 24 hour stimulation
T2 construct: HEK293 cells overexpressing either the full length RIG-I; host or cells: HEK293; HCT116 also for the qRT-PCR validation
T2 sequence (O95786 1-925): T1 sequence
Protocol: We also used reporter HEK293 cells as simple technique to evaluate ability of the given RNA to stimulate IFN-beta production in preliminary in vitro experiments. Technically this was performed as follows: RNA stimulation of HEK293 IFN-beta reporter cells HEK293 cells were seeded in a 24-well plate overnight at a density of 1.5×10^5 cells/ml (75,000 cells/well). Cells were co-transfected with 100 ng of plasmid construct (pCAGGS empty vector, pCAGGS-RIG-I full-length, pCAGGS-RIG-I helicase-RD mutant construct, and […] mutant construct), together with 80 ng of a firefly luciferase reporter gene driven by an IFN-beta promoter and 20 ng of a Renilla luciferase (pRL-null) transfection control. Transfections were performed using a cationic lipid agent, Fugene HD (Promega), at a 3:1 lipid:DNA ratio. Twenty-four hours post-transfection, cells were then stimulated with 1 μg RNA* mixed with Fugene HD at 2:1 lipid: RNA ratio for 24 hours. 20 μl cell lysates were collected in opaque 96-well plates and analyzed for IFN-beta-luciferase and Renilla activity using a BioTek Synergy HT plate reader. The transfection efficiency across different wells was normalized by dividing the IFN-beta luciferase activity with the Renilla activity. All values were further normalized to the unstimulated controls in cells transfected with the empty vector. All pCAGGS RIG-I constructs used in this study were generous gifts from Dr. Jenish Patel and Dr. Adolfo Garcia-Sastre of The Icahn School of Medicine at Mount Sinai in New York City. Synthetic RNA comprised of various stem loop regions of the human U1 snRNA were purchased from IDT Oligos as reported in (Bernard et al., 2012). U1 stem loop I sequence: [NT] ID NO:15); U1 stem loop II sequence: [NT] ID NO:16); U1 stem loop III sequence: [NT] ID NO:17); U1 stem loop IV sequence: [NT] ID NO:18); U1 stem loops I and II sequence: [NT] ID NO:19); U1 stem loops II and III sequence: [NT] ID NO:20). In vitro transcribed U1 RNA stimulation: Full length U1 (pT7U1) plasmid was generously provided by Dr. Joan Steitz (Yale School of Medicine, Yale University). […]

Nc1nc2c(ncn2[C@@H]2O[C@@H]3COP(=O)(O)O[C@H]4[C@@H](O)[C@H](n5cnc6c(N)ncnc65)O[C@@H]4COP(=O)(O)O[C@@H]2[C@@H]3O)c(=O)[nH]1 [2′3′-cGAMP, cyclic [G(2′,5′)pA(3′,5′)p]]
number of tumor-specific IFN-γ-producing CD8+ T cells in DLNs (MC38 tumors [1]; combination with radiation vs radiation or 2′3′-cGAMP alone, WT mice): significantly increased | antitumor CD8+ T cell response induced by combination with radiation (MC38 tumors [1]; deficiency of STING in the host): dampened | synergy with radiation (MC38 tumors [2]; STING^−/− mice): abrogated | tumor burden, combination with radiation compared to either alone (MC38 tumors [2]; WT mice, 10 μg intratumorally on day 2 and 6 after 20Gy): effectively reduce tumor burden

Cc1ccc2c(=O)c3cccc(CC(=O)O)c3oc2c1C [DMXAA]
function of STING^−/− BMDCs (cross-priming) (BMDCs): fails to rescue | function of cGAS^−/− BMDCs (cross-priming) (BMDCs): restored

N.N.[Cl][Pt][Cl] [cisplatin]
caspase 3/7 activity in response to drug treatment, RIG-I absent or depleted vs control cells [3]: reduced caspase 3/7 activity

COc1cccc2c1C(=O)c1c(O)c3c(c(O)c1C2=O)C[C@@](O)(C(=O)CO)C[C@@H]3O[C@H]1C[C@H](N)[C@H](O)[C@H](C)O1 [doxorubicin]
caspase 3/7 activity in response to drug treatment, RIG-I absent or depleted vs control cells [3]: reduced caspase 3/7 activity

U1 snRNA (endogenous)
binding signal [4]: 6 fold

B1: SL I+II: synthetic RNA of U1 stem loops I and II, SEQ ID NO:19 (nucleic acid)
chain: GGGAGATACCATGATCACGAAGGTGGTTTTCCCAGGGCGAGGCTTATCCATTGCACTCCGGATGTGCTGACCCC
modifications: listed as DNA, chemistry not given here
IFN-beta response (reporter activity in HEK293; IFN-b in MEF supernatant) (RIG-I): potent inducers of IFN-beta response

B2: SL II+III: synthetic RNA of U1 stem loops II and III, SEQ ID NO:20 (nucleic acid)
chain: GGGCGAGGCTTATCCATTGCACTCCGGATGTGCTGACCCCTGCGATTTCCCCAAATGTGGGAAACTCGACTGC
modifications: listed as DNA, chemistry not given here
IFN-beta response (reporter activity in HEK293; IFN-b in MEF supernatant) (RIG-I): potent inducers of IFN-beta response
